Results: article PMC12112033, “Application of Lipophilic Prodrug Charge Masking Strategy to Obtain Novel, Potential Oxytocin Prodrugs” (International Journal of Molecular Sciences, 2025)

What was measured:
in vitro [1] = settings: for Papp at 5 h, 10 µM: PAMPA, pH 7.4, Papp ± SD (PAMPA)
Text: The permeability of OT and its prodrugs was estimated by the PAMPA test (Corning, Gentest PAMPA Plate System). The PAMPA method is a common method for the permeability evaluation of early drug candidates. Although this system lacks transporters, paracellular pathway enzymes, and other cell-associated processes, it measures passive diffusion, the primary mechanism by which drugs traverse biological barriers. Consequently, due to its low cost, high throughput, and relative handling ease, it serves as screening tool for predicting drugs absorption potential. The PAMPA reflects the passive transport through biological membranes, and its results are reported to correlate with those obtained from the Caco-2 cell model.
A Gentest Pre-coated PAMPA Plate System was purchased from Corning® (Tewksbury, MA, USA). The assay was performed according to the provider instructions, following Caco-2 convention, where the top well is a donor well. The 10 µM solutions of OT, prodrugs, and permeability markers were prepared in PBS buffer, pH 7.4, from 1 mM stock solutions in dimethyl sulfoxide (DMSO). A total of 300 µL per well of tested compounds was added to the donor, filter plate, which, after distribution of all samples, was coupled with acceptor plate filed with 200 µL of phosphate-buffered saline (PBS) per well. All compounds were measured in triplicate. After 5 h of incubation at 25 °C, 200 µL samples were collected from acceptor and donor wells and analyzed using UHPLC-MS to determine concentrations of compounds.

Caco-2 cell monolayer [2] = assay: Caco-2 monolayer integrity by TEER before and after treatment; assay type: cell-based, human; settings: 100 µg/mL, 2 h treatment
Protocol: This assessment was performed using a dose (100 µg/mL) and treatment time (2 h) similar to those applied in the intestinal transport analysis.
Caco-2 cells were cultured at 37 °C under a 5% CO2 atmosphere using Dulbecco’s Modified Eagle’s Medium (DMEM), supplemented with 20% (v/v) fetal bovine serum, non-essential amino acids 100×, and gentamycin (50 mg/mL). […] The culture medium was replaced every 2 days.

in vitro [3] = settings: human, Caco-2
Protocol: (§1) The transport of OT and its derivatives (Oct-OT, Hoc-OT, Dec-OT, Dod-OT) selected for further in vitro studies was evaluated at a target concentration of approximately 100 µg/mL. Intestinal transport was initiated by adding the tested compounds to the apical compartment for absorptive transport determination. The solutions from the acceptor compartments were sampled at 20-minute intervals to analyze the concentration of transported compounds.
(§2) The Caco-2 cell line (ATCC HTB-37), derived from human colon adenocarcinoma, was obtained from the American Type Culture Collection (ATCC, Manassas, VA, USA). Caco-2 cells were cultured at 37 °C under a 5% CO2 atmosphere using Dulbecco’s Modified Eagle’s Medium (DMEM), supplemented with 20% (v/v) fetal bovine serum, non-essential amino acids 100×, and gentamycin (50 mg/mL). For experiments, the Caco-2 cells were plated at a density of 4 × 10^5 cells per cm^2 on polyethylene terephthalate (PET) capillary pore membranes with a pore size of 0.4 μm and a growth surface area of 1.13 cm^2 (Greiner PET hanging). The culture medium was replaced every 2 days. All experiments were performed on differentiated Caco-2 cell monolayers 21 days post-seeding. To check the integrity of the Caco-2 monolayer, transepithelial electrical resistance (TEER) was measured by employing the Millicell Electrical Resistance System (Millipore, Bedford, MA, USA). Moreover, fluorescein-5(6)-sulfonic acid was used as a transport marker, added to the apical side of the Caco-2 cultures at 200 μg/mL concentration. Fluoresceinated sulfonic acid, with a molecular weight of 478 Da, is a hydrophilic, charged molecule at physiological pH and is considered cell impermeable. Unless specified otherwise, all chemicals were purchased from Merck KGaA (Darmstadt, Germany).
(§3) The analyzed compounds at non-cytotoxic concentration of approximately 100 μg/mL were prepared in Hank’s balanced salt solution (HBSS), which was adapted as a transport medium. […] Before the experiments, the Caco-2 monolayers were washed twice with HBSS and pre-incubated at 37 °C for 30 min. Transport was initiated by adding HBSS to the acceptor (basolateral) side and the analyzed compound to the donor (apical) side, which mimicked absorptive intestinal transport. The Caco-2 cell cultures were placed in the incubator (37 °C) and continuously agitated using a plate shaker (120 rpm). At 20 min intervals, a sample was taken from the acceptor compartment, and HPLC analyzed the concentration of the transported compound. Each sample volume was replaced with fresh HBSS warmed to 37 °C. To quantify the transport of compound across the Caco-2 cell monolayer, the apparent permeability coefficient (Papp) was determined according to the protocol previously described by Tavelin et al.. […]

Caco-2 cell monolayer [4] = assay: in vitro
Protocol: as §1, §2, §3

[5] = cited from earlier work

| SMILES | PAMPA permeability (in words) (in vitro [1]) | Papp at 5 h, 10 µM (in vitro [1]) | Caco-2 monolayer integrity (TEER before and after treatment) (Caco-2 cell monolayer [2]) | Papp A→B (in vitro [3]) | Caco-2 permeability compared to OT (in words) (Caco-2 cell monolayer [4]) | Time to peak levels after intranasal administration [5] | Mass Retention (PAMPA) (in vitro [1]; 5 h, 10 µM, pH 7.4) |
| --- | --- | --- | --- | --- | --- | --- | --- |
| CCCOC(=O)N[C@H]1CSSC[C@@H](C(=O)N2CCC[C@H]2C(=O)N[C@@H](CC(C)C)C(=O)NCC(N)=O)NC(=O)[C@H](CC(N)=O)NC(=O)[C@H](CCC(N)=O)NC(=O)[C@H]([C@@H](C)CC)NC(=O)[C@H](Cc2ccc(O)cc2)NC1=O [Prop-OT, Prop-Cys(&)-Tyr-Ile-Gln-Asn-Cys(&)-Pro-Leu-Gly-NH2] | – | 2.97 ± 0.64 ×10⁻⁶ cm/s | – | – | – | – | – |
| CCCCOC(=O)N[C@H]1CSSC[C@@H](C(=O)N2CCC[C@H]2C(=O)N[C@@H](CC(C)C)C(=O)NCC(N)=O)NC(=O)[C@H](CC(N)=O)NC(=O)[C@H](CCC(N)=O)NC(=O)[C@H]([C@@H](C)CC)NC(=O)[C@H](Cc2ccc(O)cc2)NC1=O [But-OT, But-Cys(&)-Tyr-Ile-Gln-Asn-Cys(&)-Pro-Leu-Gly-NH2] | – | 2.2 ± 0.3 ×10⁻⁶ cm/s | – | – | – | – | – |
| CCCCCCOC(=O)N[C@H]1CSSC[C@@H](C(=O)N2CCC[C@H]2C(=O)N[C@@H](CC(C)C)C(=O)NCC(N)=O)NC(=O)[C@H](CC(N)=O)NC(=O)[C@H](CCC(N)=O)NC(=O)[C@H]([C@@H](C)CC)NC(=O)[C@H](Cc2ccc(O)cc2)NC1=O [Hoc-OT, Hoc-Cys(&)-Tyr-Ile-Gln-Asn-Cys(&)-Pro-Leu-Gly-NH2] | significantly better permeability | 4.67 ± 0.66 ×10⁻⁶ cm/s | stable and high monolayer integrity | 1.99 ± 0.33 ×10⁻⁶ cm/s | lower permeability than OT | – | – |
| CC[C@H](C)[C@@H]1NC(=O)[C@H](Cc2ccc(O)cc2)NC(=O)[C@@H](NC(=O)OCCOC)CSSC[C@@H](C(=O)N2CCC[C@H]2C(=O)N[C@@H](CC(C)C)C(=O)NCC(N)=O)NC(=O)[C@H](CC(N)=O)NC(=O)[C@H](CCC(N)=O)NC1=O [MeOEt-OT, MeOEt-Cys(&)-Tyr-Ile-Gln-Asn-Cys(&)-Pro-Leu-Gly-NH2] | – | 2.37 ± 0.52 ×10⁻⁶ cm/s | – | – | – | – | – |
| CCOC(=O)N[C@H]1CSSC[C@@H](C(=O)N2CCC[C@H]2C(=O)N[C@@H](CC(C)C)C(=O)NCC(N)=O)NC(=O)[C@H](CC(N)=O)NC(=O)[C@H](CCC(N)=O)NC(=O)[C@H]([C@@H](C)CC)NC(=O)[C@H](Cc2ccc(O)cc2)NC1=O [Et-OT, Et-Cys(&)-Tyr-Ile-Gln-Asn-Cys(&)-Pro-Leu-Gly-NH2] | – | 2.78 ± 0.17 ×10⁻⁶ cm/s | – | – | – | – | – |
| CC[C@H](C)[C@@H]1NC(=O)[C@H](Cc2ccc(O)cc2)NC(=O)[C@@H](N)CSSC[C@@H](C(=O)N2CCC[C@H]2C(=O)N[C@@H](CC(C)C)C(=O)NCC(N)=O)NC(=O)[C@H](CC(N)=O)NC(=O)[C@H](CCC(N)=O)NC1=O [OT, Cys(&)-Tyr-Ile-Gln-Asn-Cys(&)-Pro-Leu-Gly-NH2, reference compound] | – | 2.2 ×10⁻⁶ cm/s | stable and high monolayer integrity | 7.74 ± 0.53 ×10⁻⁶ cm/s | – | 15 to 30 min | – |
| Cn1c(=O)c2c(ncn2C)n(C)c1=O [Caffeine, reference compound] | – | 22 ± 11.2 ×10⁻⁶ cm/s | – | – | – | – | 26% |

More lines, main results first:

| PAMPA permeability (in words) (in vitro [1]) | Papp at 5 h, 10 µM (in vitro [1]) | Caco-2 monolayer integrity (TEER before and after treatment) (Caco-2 cell monolayer [2]) | Papp A→B (in vitro [3]) | Caco-2 permeability compared to OT (in words) (Caco-2 cell monolayer [4]) | SMILES | Time to peak levels after intranasal administration [5] | Mass Retention (PAMPA) (in vitro [1]; 5 h, 10 µM, pH 7.4) |
| --- | --- | --- | --- | --- | --- | --- | --- |
| significantly better permeability | 9.28 ± 6.11 ×10⁻⁶ cm/s | stable and high monolayer integrity | – | – | CCCCCCCCCCOC(=O)N[C@H]1CSSC[C@@H](C(=O)N2CCC[C@H]2C(=O)N[C@@H](CC(C)C)C(=O)NCC(N)=O)NC(=O)[C@H](CC(N)=O)NC(=O)[C@H](CCC(N)=O)NC(=O)[C@H]([C@@H](C)CC)NC(=O)[C@H](Cc2ccc(O)cc2)NC1=O [Dec-OT, Dec-Cys(&)-Tyr-Ile-Gln-Asn-Cys(&)-Pro-Leu-Gly-NH2] | – | – |
| significantly better permeability | 5.93 ± 0.86 ×10⁻⁶ cm/s | stable and high monolayer integrity | 14 ± 2.27 ×10⁻⁶ cm/s | – | CCCCCCCCOC(=O)N[C@H]1CSSC[C@@H](C(=O)N2CCC[C@H]2C(=O)N[C@@H](CC(C)C)C(=O)NCC(N)=O)NC(=O)[C@H](CC(N)=O)NC(=O)[C@H](CCC(N)=O)NC(=O)[C@H]([C@@H](C)CC)NC(=O)[C@H](Cc2ccc(O)cc2)NC1=O [Oct-OT, Oct-Cys(&)-Tyr-Ile-Gln-Asn-Cys(&)-Pro-Leu-Gly-NH2] | – | – |
| poor permeability | 1.08 ± 0.95 ×10⁻⁶ cm/s | stable and high monolayer integrity | – | – | CCCCCCCCCCCCOC(=O)N[C@H]1CSSC[C@@H](C(=O)N2CCC[C@H]2C(=O)N[C@@H](CC(C)C)C(=O)NCC(N)=O)NC(=O)[C@H](CC(N)=O)NC(=O)[C@H](CCC(N)=O)NC(=O)[C@H]([C@@H](C)CC)NC(=O)[C@H](Cc2ccc(O)cc2)NC1=O [Dod-OT, Dod-Cys(&)-Tyr-Ile-Gln-Asn-Cys(&)-Pro-Leu-Gly-NH2] | – | – |
